In general, IC50 refers to the point on the concentration scale where inhibition reaches its midpoint. A high value points to weaker potency.

For assay [1], the target named is T1, α‐glucosidase from Saccharomyces cerevisiae (Saccharomyces cerevisiae, UniProt P53341).
T1 construct: purchased Sigma-Aldrich
The experiment in a line: α‐glucosidase inhibitory activity assay. The class given is biochemical. As for the experimental part:
All other chemicals and reagents were of analytical grade and commercially available.
α‐glucosidase inhibitory activity assay was performed according to a method by Kim with slight modifications (Kim, Wang, & Rhee, 2004). The α‐glucosidase inhibitory rate of the hydrolysate was estimated in a 96‐well microplate using a MR‐96A microplate reader (Mindray) by monitoring the amount of 4‐nitrophenol (PNP) released from 4‐nitrophenol‐α‐D‐glucopyranoside (PNPG). A dose (50 μl) of sodium phosphate buffer (pH 6.8, 0.2 M), 50 μL of PNPG (1 mg/ml) dissolved in sodium phosphate buffer, and 50 μl of the samples dissolved in the same buffer were mixed adequately in a 96‐well microplate. Then, it was incubated for 5 min at 37°C, and the reaction started immediately followed by the addition of 10 μl of α‐glucosidase solution (0.2 U/ml of the buffer). The plate was incubated for another 30 min at 37°C, and then, the reaction was terminated by the addition of 80 μl of 1 M Na2CO3 solution. The absorbance of released product PNP was measured immediately at 405 nm. […] The percentage of α‐glucosidase inhibition was calculated as follows:(1) α-glucosidase inhibition rate%=ODA-ODS/ODA-ODB×100 where ODA is the absorbance of the supernatant in which the sample is replaced by the same amount of buffer; ODS is the absorbance of the supernatant with the tested sample; and ODBis the absorbance of the supernatant in which the tested sample and α‐glucosidase solution are replaced by the same amount of buffer.

Assay [2] is described as follows: Hydroxyl radical scavenging ability. To be noted: Fenton reaction, salicylic acid, 37℃, 30 min, absorbance 510 nm; mean ± SD of three replicates. How it is done: The antioxidant activity of the soy protein peptides was determined by a hydroxyl radical scavenging assay involving in the Fenton reaction, according to Hanasaki (Hanasaki, Ogava, & Fukui, 1994). The samples were prepared into 0.1, 0.5, 2, 5, and 10 mg/ml. Then, 1 ml of 9 µmol/L FeSO4 solution and 1 ml of salicylic acid–ethanol solution (9 µmol/L，50% ethanol solution) were added respectively and mixed well, with the addition of 1 ml of […] H2O2 (0.03%) reaction initiated. The mixture was incubated in a 37℃ water bath for 30 min and then centrifuged at 2,896 g for 5 min to remove the precipitation. The absorbance of the supernatant was measured at 510 nm. The hydroxyl radical clearance rate was calculated as follows:(4) Hydroxyl radical clearance rate%=1-A1-A2/A0×100 where A 1 is the absorbance of the sample supernatant, A 2 is the absorbance of the supernatant in which the salicylic acid–ethanol is replaced by the same amount of ethanol, and A 0 is the absorbance of the supernatant in which the sample is replaced by distilled water. The ascorbic acid was used as a positive control.

Assay [3] in a line: Ferric reducing antioxidant power (FRAP) activity. The conditions noted are these: 1, 2, 5, 10, and 20 mg/ml, potassium ferricyanide, pH 6.6, 50℃, 30 min, absorbance 700 nm. How it is done:
The FRAP assay was used to determine the antioxidative of the samples using the method described by Tsai et al with some modifications (Tsai, Huang, & Mau, 2006) and to configure the sample solution with the concentration of 1, 2, 5, 10, and 20 mg/ml. Using 1 ml of sample mixed with 2.5 ml of 0.2 mol/L sodium phosphate buffer (pH 6.6) and 2.5 ml of 1% potassium ferricyanide solution incubated at 50℃ for 30 min, add 2.5 ml of 10% trichloroacetic acid solution, centrifuged at 1,042 g for 10 min, and then collected 2.5 ml of supernatant mixed with 2.5 ml of distilled water and 0.5 ml of 0.1% ferric chloride solution. The absorbance at 700 nm was measured after 10 min by a 754 PC spectrophotometer (Shanghai, China). FeSO4 aqueous solution was used as positive control.

Where a SMILES comes first, the peptide text is derived from it.

T1 sequence (P53341 whole entry): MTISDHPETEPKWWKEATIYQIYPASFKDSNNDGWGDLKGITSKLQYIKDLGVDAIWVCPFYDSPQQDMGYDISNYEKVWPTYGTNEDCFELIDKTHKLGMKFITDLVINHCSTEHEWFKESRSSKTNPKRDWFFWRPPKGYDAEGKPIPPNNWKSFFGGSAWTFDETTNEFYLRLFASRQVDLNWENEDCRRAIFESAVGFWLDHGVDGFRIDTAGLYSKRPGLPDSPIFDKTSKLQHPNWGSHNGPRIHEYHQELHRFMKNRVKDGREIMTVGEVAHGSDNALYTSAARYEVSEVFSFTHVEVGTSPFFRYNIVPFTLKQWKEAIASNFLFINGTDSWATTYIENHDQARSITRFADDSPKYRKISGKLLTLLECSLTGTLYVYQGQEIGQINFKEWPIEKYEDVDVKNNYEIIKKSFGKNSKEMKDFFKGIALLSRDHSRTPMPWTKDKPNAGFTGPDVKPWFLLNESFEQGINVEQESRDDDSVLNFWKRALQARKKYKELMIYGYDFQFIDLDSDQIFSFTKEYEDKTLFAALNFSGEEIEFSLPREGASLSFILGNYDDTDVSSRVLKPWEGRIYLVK

Consider “MLPVMR [hexapeptide identified from soy protein AP hydrolysate fraction H1‐2, then synthesized]”, for which the “α‐glucosidase inhibition, result in words” value in assay [1] (synthetic peptide or DEAE‐52 fraction, test concentration not given) was “did not show inhibitory activity”.

In assay [1], `CC(C)C[C@H](NC(=O)[C@H](CCCNC(=N)N)NC(=O)[C@H](CC(C)C)NC(=O)[C@@H](N)Cc1c[nH]c2ccccc12)C(=O)O` [WLRL] (H-WLRL-OH) returned a concentration for half-maximal inhibition (IC50) of 165.3 ± 0.74 µM. As to `CC(C)C[C@H](NC(=O)[C@@H](NC(=O)[C@@H]1CCCN1C(=O)[C@H](CC(C)C)NC(=O)[C@@H]1CCCN1C(=O)[C@H](CC(C)C)NC(=O)[C@@H](N)CC(C)C)C(C)C)C(=O)N[C@@H](CCCCN)C(=O)O` (H-LLPLPVLK-OH), in assay [1], the IC50 stood at 237.4 ± 0.52 µM.

As for `O=C1O[C@H]([C@@H](O)CO)C(O)=C1O` [vitamin C, ascorbic acid], the “hydroxyl radical scavenging ability IC50” value in assay [2] is 540 ± 40 µg/mL.

As to ferrous sulfate [FeSO4], the “iron ion reduction ability (FRAP)” value is “linearly related to concentration” in assay [3] and “stronger reduction ability” in assay [3] (listed as ferrous sulfate).

Regarding `CC(C)C[C@H](NC(=O)[C@H](CCCNC(=N)N)NC(=O)[C@H](CC(C)C)NC(=O)[C@H](Cc1c[nH]c2ccccc12)NC(=O)[C@@H](N)CO)C(=O)O` [SWLRL] (H-SWLRL-OH), the half-inhibitory concentration (IC50) in assay [1] was 182.1 ± 0.74 µM.

The values above are taken from paper PMC6526634, “Preparation of bioactive peptides with antidiabetic, antihypertensive, and antioxidant activities and identification of α‐glucosidase inhibitory peptides from soy protein” (Food Science & Nutrition, 2019).
